Source: ChEMBL document CHEMBL1201862, “PubChem BioAssay data set” (2004)
Active and inactive are the calls of the source.

Tests used:
[1] = cytotoxicity in HEK-293T cells, dose response, cytotoxicity control for TCR NF-kB inhibitor project, luminescence, T-cell screen hits (AID 489026); assay type: functional, cell-based;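 further: cells exposed to compound about 14 hours before the viability readout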
[2] = THP-1 cell cytotoxicity, dose response, cytotoxicity control for Vif-APOBEC3G degradation inhibitor project, THP-1 cells (AID 1117359); assay type: functional; conditions: Human immunodeficiency virus 1, THP-1
[3] = target: Peroxisome proliferator-activated receptor gamma/Nuclear receptor coactivator 1 (Homo sapiens, UniProt P37231); experiment: (§1) TR-FRET dose response biochemical High Throughput Screening assay for agonists of the steroid receptor coactivator 1 (SRC-1) recruitment by the peroxisome proliferator-activated receptor gamma (PPAR gamma): non-selective agonists. [Related pubchem assays (depositor defined):AID1300, AID1808, AID504735, AID631]; assay type: protein assay
[4] = target: Peroxisome proliferator-activated receptor gamma/Nuclear receptor coactivator 3 (Homo sapiens, UniProt P37231); experiment: as §1, with “3 (SRC-3)” for “1 (SRC-1)”, “assays: 1301 (Confirmation screen.), 1048 (Primary screen.)]” for “assays (depositor defined):AID1300, AID1808, AID504735, AID631]”; assay type: functional
[5] = target: G-protein coupled receptor 55 (Homo sapiens, UniProt Q9Y2T6); experiment: GPR55 antagonists blocking LPI-driven arrestin recruitment, primary screen, imaging, U2OS, beta-arrestin-GFP, LPI agonist (AID 2013); assay type: functional;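 further: antagonist potency measured as reduced agonist-driven arrestin aggregation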
[6] = Luminescence-based dose response cell-based high throughput screening assay for cytotoxic compounds using the IEC-6 intestinal epithelial cell line. [Related pubchem assays: 1858 (Summary AID.), 1825 (Counterscreen.), 1907 (Confirmation screen.)]; assay type: functional
[7] = target: Peroxisome proliferator-activated receptor gamma/Nuclear receptor coactivator 2 (Homo sapiens, UniProt P37231); experiment: TR-FRET dose response biochemical High Throughput Screening assay for agonists of the steroid receptor coactivator 2 (SRC-2) recruitment by the peroxisome proliferator-activated receptor gamma (PPAR gamma): non-selective agonists. [Related pubchem assays: 1297, 1032 ]; assay type: functional
[8] = target: Induced myeloid leukemia cell differentiation protein Mcl-1 (Homo sapiens, UniProt Q07820); assay type: functional
[9] = target: Glucose-6-phosphate 1-dehydrogenase (Homo sapiens, UniProt P11413); experiment: human G6PD enzyme inhibitors, dose response, selectivity assay for P. falciparum G6PD inhibitor project, biochemical, fluorescence (AID 504792); assay type: functional
[10] = target: Eukaryotic translation initiation factor 4E (Mus musculus, UniProt P63073); experiment: eIF4E–eIF4G protein interaction inhibitors, dose response, biochemical, TR-FRET (AID 855); assay type: functional;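 further: potency for disrupting eIF4E binding to eIF4GI seen as loss of FRET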
[11] = target: Nonstructural protein 1 (Influenza A virus, UniProt Q194T2); assay type: functional, Influenza A virus (A/California/07/2009(H1N1))
[12] = target: Heat shock protein HSP 90-alpha (Homo sapiens, UniProt P07900); assay type: functional, organism-based
[13] = Shn3 3'UTR reporter inhibitors, dose response, cell-based, Clone20 osteoblasts, firefly luciferase, cherry-picked (AID 624132); assay type: functional;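 further: firefly luciferase luminescence from reporter carrying the Shn3 3'UTR in osteoblasts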
[14] = HepG2 cell cytotoxicity, dose response, cytotoxicity control for Shn3 inhibitor project, CellTiter-Glo, cherry-picked (AID 624134); assay type: functional, cell-based
[15] = control 3'UTR Renilla luciferase suppression, dose response, counter-screen for Shn3 inhibitor project, cell-based, Clone20-Shn3RL, cherry-picked (AID 624133); assay type: functional
[16] = target: Mu-type opioid receptor (Homo sapiens, UniProt P35372); experiment: SAR Analysis of Antagonists of the MOR Receptor using an Image-Based Assay - Set 3. [Related pubchem assays (depositor defined):AID1777, AID1785, AID1786, AID1966, AID2133, AID2136, AID2284, AID2285, AID2420]; assay type: functional
[17] = target: Delta-type opioid receptor (Homo sapiens, UniProt P41143); experiment: SAR Analysis of Antagonists of the DOR Receptor using an Image-Based Assay - Set 3. [Related pubchem assays (depositor defined):AID1777, AID1785]; assay type: functional;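 further: U2OS cells expressing DOR1 and beta-arrestin GFP stimulated with 100 nM SNC80; imaging of GFP-tagged beta-arrestin moving into spots after receptor activation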
[18] = target: T1, Kappa-type opioid receptor (Homo sapiens, UniProt P41145); experiment: SAR analysis of small molecule antagonists of the kappa opioid receptor via a luminescent beta-arrestin assay - Set 3. [Related pubchem assays (depositor defined):AID1777, AID1778, AID1785, AID1786, AID1966, AID2133, AID2136, AID2285, AID2495]; assay type: functional
[19] = target: T1, Kappa-type opioid receptor; experiment: SAR analysis of Antagonists of the Kappa Opioid Receptor (KOR) using an Image-Based Assay - Set 4. [Related pubchem assays (depositor defined):AID1777, AID1785]; assay type: functional

T1 sequence (P41145 whole entry): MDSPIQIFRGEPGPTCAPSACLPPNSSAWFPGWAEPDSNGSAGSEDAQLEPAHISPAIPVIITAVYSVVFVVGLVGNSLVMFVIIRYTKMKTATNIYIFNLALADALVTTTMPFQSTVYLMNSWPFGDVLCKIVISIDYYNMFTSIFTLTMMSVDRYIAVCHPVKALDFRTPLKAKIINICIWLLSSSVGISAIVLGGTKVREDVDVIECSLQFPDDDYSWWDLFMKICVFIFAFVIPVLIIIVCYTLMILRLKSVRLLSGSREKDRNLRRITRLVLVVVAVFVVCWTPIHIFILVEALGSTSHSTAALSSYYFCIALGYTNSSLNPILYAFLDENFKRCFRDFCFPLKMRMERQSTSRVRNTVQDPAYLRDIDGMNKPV
Chain of Glucose-6-phosphate 1-dehydrogenase (P11413 whole entry): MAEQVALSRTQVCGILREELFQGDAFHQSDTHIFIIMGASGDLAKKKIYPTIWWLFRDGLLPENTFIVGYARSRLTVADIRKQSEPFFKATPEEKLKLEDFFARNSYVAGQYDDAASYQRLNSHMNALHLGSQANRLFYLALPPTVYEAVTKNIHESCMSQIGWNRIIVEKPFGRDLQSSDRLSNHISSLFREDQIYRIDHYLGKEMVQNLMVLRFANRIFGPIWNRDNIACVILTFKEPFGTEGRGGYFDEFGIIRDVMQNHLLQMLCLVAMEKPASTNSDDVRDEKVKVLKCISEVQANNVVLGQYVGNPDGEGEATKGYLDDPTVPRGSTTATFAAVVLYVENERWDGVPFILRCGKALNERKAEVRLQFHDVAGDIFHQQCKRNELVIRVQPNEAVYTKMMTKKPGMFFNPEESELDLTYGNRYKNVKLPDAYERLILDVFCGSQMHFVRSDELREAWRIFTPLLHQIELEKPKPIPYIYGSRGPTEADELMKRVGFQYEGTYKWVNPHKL
Chain of Nonstructural protein 1 (Q194T2 whole entry): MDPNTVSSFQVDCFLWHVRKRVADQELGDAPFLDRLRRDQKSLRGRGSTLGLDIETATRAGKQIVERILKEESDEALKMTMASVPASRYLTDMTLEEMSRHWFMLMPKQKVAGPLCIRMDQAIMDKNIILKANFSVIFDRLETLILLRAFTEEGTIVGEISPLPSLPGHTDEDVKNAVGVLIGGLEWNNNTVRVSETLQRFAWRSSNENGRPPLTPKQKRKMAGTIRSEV
Chain of Delta-type opioid receptor (P41143 whole entry): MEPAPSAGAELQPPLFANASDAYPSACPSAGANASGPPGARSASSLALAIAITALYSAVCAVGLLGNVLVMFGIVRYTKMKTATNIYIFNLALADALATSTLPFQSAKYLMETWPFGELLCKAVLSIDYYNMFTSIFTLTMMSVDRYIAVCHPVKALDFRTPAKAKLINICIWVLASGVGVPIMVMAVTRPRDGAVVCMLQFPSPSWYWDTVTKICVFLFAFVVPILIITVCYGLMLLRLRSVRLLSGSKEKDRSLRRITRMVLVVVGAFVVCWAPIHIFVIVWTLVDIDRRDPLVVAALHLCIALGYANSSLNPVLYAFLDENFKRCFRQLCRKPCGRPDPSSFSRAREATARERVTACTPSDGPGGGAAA
Chain of Induced myeloid leukemia cell differentiation protein Mcl-1 (Q07820 whole entry): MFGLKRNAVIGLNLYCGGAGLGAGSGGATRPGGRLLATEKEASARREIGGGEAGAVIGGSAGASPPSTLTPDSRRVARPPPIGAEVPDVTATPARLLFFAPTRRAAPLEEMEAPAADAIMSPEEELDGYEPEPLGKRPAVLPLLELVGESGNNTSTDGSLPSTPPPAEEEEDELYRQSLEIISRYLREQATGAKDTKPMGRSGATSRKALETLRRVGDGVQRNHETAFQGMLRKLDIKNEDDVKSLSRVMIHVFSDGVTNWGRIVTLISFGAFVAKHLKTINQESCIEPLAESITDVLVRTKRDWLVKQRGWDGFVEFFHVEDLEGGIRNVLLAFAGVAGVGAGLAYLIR
Chain of G-protein coupled receptor 55 (Q9Y2T6 whole entry): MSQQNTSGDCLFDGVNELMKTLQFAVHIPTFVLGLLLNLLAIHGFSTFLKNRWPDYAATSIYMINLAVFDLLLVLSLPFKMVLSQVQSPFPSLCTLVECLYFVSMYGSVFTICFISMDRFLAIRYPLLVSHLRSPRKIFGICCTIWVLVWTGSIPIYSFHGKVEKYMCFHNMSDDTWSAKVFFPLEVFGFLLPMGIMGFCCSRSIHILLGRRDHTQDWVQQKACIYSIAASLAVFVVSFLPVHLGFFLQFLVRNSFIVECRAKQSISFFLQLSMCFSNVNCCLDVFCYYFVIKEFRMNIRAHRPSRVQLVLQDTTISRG
Chain of Mu-type opioid receptor (P35372 whole entry): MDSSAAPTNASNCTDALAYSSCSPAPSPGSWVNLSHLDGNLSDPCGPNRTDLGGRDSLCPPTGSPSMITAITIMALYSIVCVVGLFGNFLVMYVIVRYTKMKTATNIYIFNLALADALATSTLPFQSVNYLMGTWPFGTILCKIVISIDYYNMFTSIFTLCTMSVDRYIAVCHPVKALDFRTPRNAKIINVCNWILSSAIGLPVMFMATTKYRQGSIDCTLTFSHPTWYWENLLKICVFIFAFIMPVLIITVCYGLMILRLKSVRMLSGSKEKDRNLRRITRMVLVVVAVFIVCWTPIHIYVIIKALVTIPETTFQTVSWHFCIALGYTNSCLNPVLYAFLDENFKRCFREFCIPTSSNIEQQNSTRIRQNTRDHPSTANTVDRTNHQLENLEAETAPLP
Chain of Eukaryotic translation initiation factor 4E (P63073 whole entry): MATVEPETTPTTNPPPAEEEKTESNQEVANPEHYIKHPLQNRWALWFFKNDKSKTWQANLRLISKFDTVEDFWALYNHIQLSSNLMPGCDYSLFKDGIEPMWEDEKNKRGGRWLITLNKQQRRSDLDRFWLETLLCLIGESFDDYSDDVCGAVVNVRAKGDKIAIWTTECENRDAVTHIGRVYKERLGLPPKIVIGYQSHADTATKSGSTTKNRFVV
Chain of Peroxisome proliferator-activated receptor gamma/Nuclear receptor coactivator 3 (P37231 whole entry): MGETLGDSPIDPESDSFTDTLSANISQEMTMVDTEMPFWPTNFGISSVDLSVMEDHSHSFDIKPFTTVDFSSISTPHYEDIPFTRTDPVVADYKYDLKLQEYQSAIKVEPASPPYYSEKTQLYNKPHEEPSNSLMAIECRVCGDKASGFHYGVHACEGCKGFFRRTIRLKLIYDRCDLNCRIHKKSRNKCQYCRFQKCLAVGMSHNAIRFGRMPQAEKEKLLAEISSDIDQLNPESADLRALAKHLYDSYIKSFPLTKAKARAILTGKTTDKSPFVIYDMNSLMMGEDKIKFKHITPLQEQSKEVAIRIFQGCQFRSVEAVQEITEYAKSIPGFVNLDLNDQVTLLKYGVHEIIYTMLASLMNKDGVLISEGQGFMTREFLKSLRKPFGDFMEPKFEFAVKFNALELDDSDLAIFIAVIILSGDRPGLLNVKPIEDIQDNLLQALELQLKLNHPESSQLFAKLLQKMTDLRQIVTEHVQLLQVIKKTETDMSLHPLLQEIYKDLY
Chain of Peroxisome proliferator-activated receptor gamma/Nuclear receptor coactivator 3 (Q9Y6Q9 whole entry, further chain): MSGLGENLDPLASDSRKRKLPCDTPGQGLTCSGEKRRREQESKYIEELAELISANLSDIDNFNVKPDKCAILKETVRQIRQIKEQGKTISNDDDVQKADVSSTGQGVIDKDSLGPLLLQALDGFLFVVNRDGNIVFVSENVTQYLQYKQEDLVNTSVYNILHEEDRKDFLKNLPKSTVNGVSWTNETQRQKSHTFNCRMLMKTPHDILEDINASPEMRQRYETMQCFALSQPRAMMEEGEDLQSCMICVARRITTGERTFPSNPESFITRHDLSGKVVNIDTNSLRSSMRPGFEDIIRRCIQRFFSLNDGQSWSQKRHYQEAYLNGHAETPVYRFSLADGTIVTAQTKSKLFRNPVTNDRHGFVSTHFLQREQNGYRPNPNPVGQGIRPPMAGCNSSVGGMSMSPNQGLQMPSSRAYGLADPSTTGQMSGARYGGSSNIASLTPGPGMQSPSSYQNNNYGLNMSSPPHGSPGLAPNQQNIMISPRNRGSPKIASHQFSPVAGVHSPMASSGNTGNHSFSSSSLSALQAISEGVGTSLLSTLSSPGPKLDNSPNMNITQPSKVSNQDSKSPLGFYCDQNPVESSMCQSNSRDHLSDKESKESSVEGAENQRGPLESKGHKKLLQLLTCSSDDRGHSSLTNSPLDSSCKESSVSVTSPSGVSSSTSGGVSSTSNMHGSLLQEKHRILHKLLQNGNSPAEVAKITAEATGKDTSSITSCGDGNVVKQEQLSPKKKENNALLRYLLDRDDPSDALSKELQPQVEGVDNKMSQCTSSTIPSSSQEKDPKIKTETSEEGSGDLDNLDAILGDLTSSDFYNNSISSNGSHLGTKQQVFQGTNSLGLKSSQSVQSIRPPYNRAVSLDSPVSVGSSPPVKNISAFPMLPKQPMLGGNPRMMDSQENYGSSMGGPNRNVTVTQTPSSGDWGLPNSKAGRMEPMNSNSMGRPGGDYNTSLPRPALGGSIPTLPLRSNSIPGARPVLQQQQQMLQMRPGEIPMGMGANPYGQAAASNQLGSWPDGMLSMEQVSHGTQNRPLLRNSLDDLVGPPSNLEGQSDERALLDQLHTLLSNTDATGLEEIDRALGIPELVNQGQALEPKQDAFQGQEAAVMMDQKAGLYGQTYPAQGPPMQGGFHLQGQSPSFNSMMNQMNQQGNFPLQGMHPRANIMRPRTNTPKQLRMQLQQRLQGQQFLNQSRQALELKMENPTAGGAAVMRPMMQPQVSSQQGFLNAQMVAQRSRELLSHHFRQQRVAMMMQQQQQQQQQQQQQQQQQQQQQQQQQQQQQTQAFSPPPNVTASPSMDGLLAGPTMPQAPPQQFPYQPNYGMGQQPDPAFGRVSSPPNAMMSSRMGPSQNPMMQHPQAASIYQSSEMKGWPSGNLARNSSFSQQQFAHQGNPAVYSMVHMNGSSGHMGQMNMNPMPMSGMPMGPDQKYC

SMILES: CC1CC(C)CN(S(=O)(=O)c2ccc(NC(=O)c3ccc(O)nc3)cc2)C1 (centres undefined)
- IC50 [1]: > 80 µM (inactive)
- CC50 [2]: 19.7 µM (active)

SMILES: CN(C)c1ccc(/C=C/c2ccc3c4ccccc4ccc3[n+]2-c2ccccc2)cc1
- EC50 [3]: 19.2 µM (inactive)
- EC50 [4]: 85.7 µM (not active)
- IC50 [5]: 0.699 µM (active)
- IC50 [6]: 2.41 µM (active)
- EC50 [7]: 17 µM (not active)
- IC50 [8]: 4.64 µM (not active)
- IC50 [9]: > 80 µM (inactive)
- IC50 [10]: 50 µM (inactive)
- IC50 [11]: 2.36 µM (active)
- AC50 [12]: 3.19 µM (active)
- AC50 [13]: < 0.26 µM (active)
- AC50 [14]: 2.21 µM (active)
- AC50 [15]: 4.32 µM (active)

SMILES: O=C(NCCN(Cc1ccccc1)Cc1ccccc1)c1ccc(CNS(=O)(=O)c2ccccc2)cc1
- IC50 [16]: > 32 µM (inactive)
- IC50 [17]: > 32 µM (inactive)
- IC50 [18]: > 20 µM (inactive)
- IC50 [19]: > 32 µM (inactive)
